Where a SMILES comes first, the peptide text is derived from it. Bridges are numbered along the chain shown (N, C = ends). Where no end group is shown, it is not given here. [ ]: non-standard residue; d: D form. S5 = C=CCCC[C@](C)(N)C(=O)O A value given as a limit tells only on which side of the number the result lay.

Consider eight compounds from publication PMC7602263, “Exploring the Use of Helicogenic Amino Acids for Optimising Single Chain Relaxin-3 Peptide Agonists” (Biomedicines, 2020).

The target of assay [1] is T1, RXFP3 (Homo sapiens, UniProt Q9NSD7).
T1 construct: expressed in transfected cells; host or cells: CHO-K1
T1 sequence (Q9NSD7 1-469): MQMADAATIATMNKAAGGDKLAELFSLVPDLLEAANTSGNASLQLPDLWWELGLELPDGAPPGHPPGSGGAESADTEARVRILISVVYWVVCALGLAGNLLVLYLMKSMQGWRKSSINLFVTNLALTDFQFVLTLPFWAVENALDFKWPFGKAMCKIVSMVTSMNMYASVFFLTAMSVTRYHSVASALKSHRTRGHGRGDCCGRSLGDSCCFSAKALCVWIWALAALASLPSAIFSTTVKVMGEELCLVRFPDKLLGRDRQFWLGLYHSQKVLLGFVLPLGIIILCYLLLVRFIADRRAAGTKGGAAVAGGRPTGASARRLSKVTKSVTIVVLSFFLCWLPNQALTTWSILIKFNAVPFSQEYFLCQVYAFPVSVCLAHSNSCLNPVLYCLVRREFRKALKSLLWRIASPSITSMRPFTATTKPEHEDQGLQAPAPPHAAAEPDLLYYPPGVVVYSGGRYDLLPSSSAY
The assay can be described thus: cAMP activity assay: inhibition of forskolin-induced cAMP accumulation in CHO-K1 cells stably expressing RXFP3. The class given is cell-based. The settings on record: for EC50: CHO-K1 cells stably expressing RXFP3, inhibition of cAMP accumulation stimulated by 5 μM forskolin, mean ± SEM, triplicates, three independent experiments. Here is the method: CHO-KI cells stably expressing RXFP3 were used to study the ability of the novel analogues to inhibit forskolin-induced cAMP accumulation. Assays were conducted as previously described. Briefly, 5 μM forskolin was used to stimulate the cells and increasing concentrations of the novel analogues were added to measure the dose-dependent reduction in the cAMP response via activation of the Gi/o-coupled RXFP3. Each analogue was tested in triplicates and each experiment was independently repeated three times. Data are presented as mean ± SEM and were analysed using GraphPad Prism 8.0. Statistical analyses were conducted using 1-way ANOVA and uncorrected Fisher’s least square difference.
(§1) To determine their binding affinity, the ability of increasing concentration of analogues to compete with europium labelled R3 B1-22R were measured using CHO cells stably expressing RXFP3 [37]. Their potency at RXFP3 was measured by inhibition of cAMP accumulation induced by forskolin, as RXFP3 couples to an inhibitory G-protein.
For orientation: Cyclic AMP is a second messenger, typically raised through Gs and lowered through Gi signalling.

Assay [2] concerns the target T1, RXFP3. The assay can be described thus: Competition binding assay with Eu-labelled R3 B1-22R on CHO-K1 cells stably expressing RXFP3. The settings on record: SEM; read-out: pKi [logM] (converted). Here is the method: Determination of binding affinity in this study was carried out as previously described. Briefly, CHO-K1 cells stably expressing RXFP3 [38] were treated with 5 nM Eu-labelled R3 B1-22R with increasing concentrations of novel analogues. Fluorescence measurement were recorded with 340 nm excitation and 614 nm emission wavelengths. Assays were conducted in triplicates and independently repeated at least three times. […] Statistical analyses were conducted using 1-way ANOVA with uncorrected Fisher’s least square difference in GraphPad Prism 8.0.
as §1

Assay [3] deals with T1, RXFP3. More on the design: method as in 2 sources, one per row (each row's own in cited_ref): ref [37] = [37]; PMID 25792111; doi:10.1007/s00726-015-1961-x; 37. Haugaard-Kedström L.M. Wong L.L. Bathgate R.A. Rosengren K.J. Synthesis and pharmacological characterization of a europium-labelled single-chain antagonist for binding studies of the relaxin-3 rec ||| ref [28] = [28]; PMID 27464307; doi:10.1021/acs.jmedchem.6b00265; 28. Hojo K. Hossain M.A. Tailhades J. Shabanpoor F. Wong L.L. Ong-Palsson E.E. Kastman H.E. Ma S.K. Gundlach A.L. Rosengren K.J. Development of a single-chain peptide agonist of the relaxin-3 receptor. To be noted: read-out: Kd for Eu-R3 B1-22R; Kd of the Eu-labelled tracer at RXFP3, used to calculate pKi values; assay as previously described; ref [37]; cited from earlier work.

Take `CC[C@H](C)[C@H](NC(=O)[C@H](Cc1ccccc1)NC(=O)C(C)(C)NC(=O)[C@H](CCCNC(=N)N)NC(=O)CNC(=O)[C@H](CO)NC(C)=O)C(=O)N[C@@H](CCCNC(=N)N)C(=O)NC(C)(C)C(=O)NC(C)(C)C(=O)N[C@H](C(=O)N[C@@H](Cc1ccccc1)C(=O)N[C@H](C(=O)N[C@@H](CO)C(=O)NCC(=O)NCC(=O)N[C@@H](CO)C(=O)N[C@@H](CCCNC(=N)N)C(=O)N[C@@H](Cc1c[nH]c2ccccc12)C(=O)O)[C@@H](C)O)[C@@H](C)CC` [Analogue 4] (HELM PEPTIDE1{[ac].S.G.R.[Aib].F.I.R.[Aib].[Aib].I.F.T.S.G.G.S.R.W}$$$$V2.0): it took 33.1 nM to reach a half-maximal effect on RXFP3 [1] (SEM) (EC50). Moreover, the Ki at RXFP3 [2] was 759 nM.
Taken in the same sequence, the figures for `CC[C@H](C)[C@@H]1NC(=O)[C@H](Cc2ccccc2)NC(=O)[C@@](C)(NC(=O)[C@H](CCCNC(=N)N)NC(=O)CNC(=O)[C@H](CO)NC(=O)[C@H](CCCCN)NC(=O)[C@H](CCCCN)NC(=O)[C@H](CCCCN)NC(=O)[C@@H](N)CCCCN)CCCC=CCCC[C@@](C)(C(=O)N[C@H](C(=O)N[C@H](C(=O)N[C@@H](Cc2ccccc2)C(=O)N[C@H](C(=O)N[C@@H](CO)C(=O)NCC(=O)NCC(=O)N[C@@H](CO)C(=O)N[C@@H](CCCNC(=N)N)C(=O)N[C@@H](Cc2c[nH]c3ccccc23)C(=O)O)[C@@H](C)O)[C@@H](C)CC)C(C)C)NC(=O)[C@H](CCCNC(=N)N)NC1=O` [Analogue 12] (H-KKKKSGR[S5]FIR[S5]VIFTSGGSRW-OH; staple 8-12) were 6.46 nM and 182 nM.
`CC[C@H](C)[C@H](NC(=O)[C@H](Cc1ccccc1)NC(=O)C(C)(C)NC(=O)[C@H](CCCNC(=N)N)NC(=O)CNC(=O)[C@H](CO)NC(C)=O)C(=O)N[C@@H](CCCNC(=N)N)C(=O)NC(C)(C)C(=O)N[C@H](C(=O)N[C@H](C(=O)N[C@@H](Cc1ccccc1)C(=O)N[C@H](C(=O)NC(C)(C)C(=O)NCC(=O)NCC(=O)N[C@@H](CO)C(=O)N[C@@H](CCCNC(=N)N)C(=O)N[C@@H](Cc1c[nH]c2ccccc12)C(=O)O)[C@@H](C)O)[C@@H](C)CC)C(C)C` [Analogue 8] (HELM PEPTIDE1{[ac].S.G.R.[Aib].F.I.R.[Aib].V.I.F.T.[Aib].G.G.S.R.W}$$$$V2.0) gave an EC50 at RXFP3 [1] of over 10000 nM. The “maximum cAMP accumulation inhibition” value at RXFP3 [1] (at the highest concentration tested, CHO-K1 cells expressing RXFP3, forskolin-stimulated (Figure 3)) is ~ 50%. Besides, the Ki at RXFP3 [2] was 955 nM.
For “Eu-R3 B1-22R: europium-labelled single-chain antagonist used as tracer in the RXFP3 binding assay (RAAPYGVRLSGREFIRAVIFTSR; also: europium chelate label, attachment site not given here)”, the Kd with RXFP3 [3] is 27.9 ± 9.4 nM.
With `CC[C@H](C)[C@H](NC(=O)[C@@H](NC(=O)C(C)(C)NC(=O)[C@H](CCCNC(=N)N)NC(=O)[C@@H](NC(=O)C(C)(C)NC(=O)C(C)(C)NC(=O)[C@H](CCCNC(=N)N)NC(=O)CNC(=O)[C@H](CO)NC(C)=O)[C@@H](C)CC)C(C)C)C(=O)N[C@@H](Cc1ccccc1)C(=O)N[C@H](C(=O)N[C@@H](CO)C(=O)NCC(=O)NCC(=O)N[C@@H](CO)C(=O)N[C@@H](CCCNC(=N)N)C(=O)N[C@@H](Cc1c[nH]c2ccccc12)C(=O)O)[C@@H](C)O` [Analogue 2] (HELM PEPTIDE1{[ac].S.G.R.[Aib].[Aib].I.R.[Aib].V.I.F.T.S.G.G.S.R.W}$$$$V2.0), at RXFP3 [1] (SEM), the response was half-maximal at 550 nM (EC50). Besides, the Ki on RXFP3 [2] is 1480 nM.
On the same counts, the results for `CC[C@H](C)[C@H](NC(=O)[C@H](Cc1ccccc1)NC(=O)C(C)(C)NC(=O)[C@H](CCCNC(=N)N)NC(=O)CNC(=O)[C@@H](N)CO)C(=O)N[C@@H](CCCNC(=N)N)C(=O)NC(C)(C)C(=O)NC(C)(C)C(=O)N[C@H](C(=O)N[C@@H](Cc1ccccc1)C(=O)NC(C)(C)C(=O)N[C@@H](CO)C(=O)NCC(=O)NCC(=O)N[C@@H](CO)C(=O)N[C@@H](CCCNC(=N)N)C(=O)N[C@@H](Cc1c[nH]c2ccccc12)C(=O)O)[C@@H](C)CC` [Analogue 9] (HELM PEPTIDE1{S.G.R.[Aib].F.I.R.[Aib].[Aib].I.F.[Aib].S.G.G.S.R.W}$$$$V2.0) are 1780 nM and 2000 nM.
On the same counts, the results for `CC[C@H](C)[C@H](NC(=O)[C@H](Cc1ccccc1)NC(=O)C(C)(C)NC(=O)[C@H](CCCNC(=N)N)NC(=O)CNC(=O)[C@H](CO)NC(C)=O)C(=O)N[C@@H](CCCNC(=N)N)C(=O)NC(C)(C)C(=O)N[C@H](C(=O)N[C@H](C(=O)N[C@@H](Cc1ccccc1)C(=O)NC(C)(C)C(=O)N[C@@H](CO)C(=O)NCC(=O)NCC(=O)N[C@@H](CO)C(=O)N[C@@H](CCCNC(=N)N)C(=O)N[C@@H](Cc1c[nH]c2ccccc12)C(=O)O)[C@@H](C)CC)C(C)C` [Analogue 6] (HELM PEPTIDE1{[ac].S.G.R.[Aib].F.I.R.[Aib].V.I.F.[Aib].S.G.G.S.R.W}$$$$V2.0) are 1860 nM and 1700 nM.
Taken in the same sequence, the figures for `CC[C@H](C)[C@@H]1NC(=O)[C@H](Cc2ccccc2)NC(=O)[C@@H](NC(=O)[C@H](CCCNC(=N)N)NC(=O)CNC(=O)[C@H](CO)NC(C)=O)CSCC(=O)CSC[C@@H](C(=O)N[C@H](C(=O)N[C@H](C(=O)N[C@@H](Cc2ccccc2)C(=O)N[C@H](C(=O)N[C@@H](CO)C(=O)NCC(=O)NCC(=O)N[C@@H](CO)C(=O)N[C@@H](CCCNC(=N)N)C(=O)N[C@@H](Cc2c[nH]c3ccccc23)C(=O)O)[C@@H](C)O)[C@@H](C)CC)C(C)C)NC(=O)[C@H](CCCNC(=N)N)NC1=O` [Analogue 15] (HELM PEPTIDE1{[ac].S.G.R.C.F.I.R.C.V.I.F.T.S.G.G.S.R.W}|CHEM1{[O=C(C[*:1])C[*:2]]}$PEPTIDE1,CHEM1,5:R3-1:R1|PEPTIDE1,CHEM1,9:R3-1:R2$$$V2.0) were 4790 nM and 4790 nM.

As usually defined, the EC50 is the concentration at which the effect is half-maximal. Read a high EC50 as a less potent agent. Broadly, the Kd is the concentration at which binding is half-saturated.
